Results as given in US8907103B2, “Glucagon antagonists” (Metabasis Therapeutics, Inc., priority 2008, dated 2014).

Key:
human glucagon receptor = target: T1, human glucagon receptor (Homo sapiens, UniProt P47871); assay: Human glucagon receptor affinity ([125I]glucagon displacement, membrane preparation); type: binding; details: human glucagon receptor binding assay; stereo column says racemic or R-isomer; read-out: Hu IC50
T1 construct: host or cells: human liver samples or a recombinant cell line (alternatives)
T1 sequence (P47871 26-477): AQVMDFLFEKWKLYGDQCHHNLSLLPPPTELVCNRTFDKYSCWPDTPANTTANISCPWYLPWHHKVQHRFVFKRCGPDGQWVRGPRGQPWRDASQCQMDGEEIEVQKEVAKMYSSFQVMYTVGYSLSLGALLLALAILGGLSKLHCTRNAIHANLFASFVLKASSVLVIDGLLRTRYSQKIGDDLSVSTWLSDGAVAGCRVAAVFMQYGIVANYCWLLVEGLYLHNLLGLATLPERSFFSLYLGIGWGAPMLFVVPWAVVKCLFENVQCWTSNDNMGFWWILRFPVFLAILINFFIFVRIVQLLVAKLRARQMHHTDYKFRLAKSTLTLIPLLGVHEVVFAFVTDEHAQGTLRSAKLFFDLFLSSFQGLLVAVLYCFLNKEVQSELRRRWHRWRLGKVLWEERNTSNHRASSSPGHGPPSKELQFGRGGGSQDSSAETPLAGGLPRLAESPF
Protocol: Compounds provided herein are dissolved in a suitable solvent (e.g., dimethlysulfoxide) at a concentration of 10 mM and then diluted in buffer (e.g., 50 mM Hepes, pH 7.4, 5 mM MgCl2, 1 mM CaCl2, and 0.2% BSA) to concentrations ranging from 1 nM to 100 μM. Compounds (20 μL/well) and [^125I]glucagon at the final concentration of 0.125 nM (20 μl/well) (Perkin Elmer) are added to and mixed in wells of a 96-well plate (Costar, Corning) containing 120 μL of buffer. Next, an appropriate aliquot of a membrane preparation containing the human glucagon receptor (isolated from human liver samples or obtained from a recombinant cell line) is added to the wells. The binding mixtures are incubated for 2 hrs at room temperature. In the meantime, a MultiScreen 96-well filter plate (Millipore) is treated with 200 μL of the buffer, which is vacuumed through the filter just before the binding mixtures are transferred to the plate. At the end of incubation, binding mixtures are transferred to the wells of the MultiScreen 96-well filter plate and filtered through by applying vacuum. The plate is washed once with 200 μL per well of the buffer, and the filters are dried and counted using a gamma counter.

human hepatocytes = assay: Functional antagonism of glucagon-stimulated glucose production in hepatocytes; type: cell-based; details: human hepatocyte assay, 1 nM glucagon; read-out: Hu Hepatocyte EC50
Protocol: Primary human, monkey, dog, rat, or mouse hepatocytes are seeded onto collagen-coated 24-well plates in Williams E medium (supplemented with 10% fetal bovine serum) and incubated at 37° C. overnight in M199 medium (supplemented with 15 mM glucose and 10 nM human insulin). The following day cells are washed twice with a glucose-free Kreb-bicarbonate buffer, pH 7.4, containing 0.1% BSA. Cells are then incubated at 37° C. with the aforementioned buffer containing 1 nM glucagon and varying concentrations of a glucagon antagonist (0-100 microM). Control wells without glucagon or antagonist are also included. After 1 hour, an aliquot of the medium is removed and analyzed for glucose content by means of the glucose oxidase method. The background glucose levels observed in the control wells are subtracted from the glucagon and antagonist containing wells. A graph of % glucose concentration vs drug concentration is plotted and an EC50 value for inhibition of glucose production generated using Sigmaplot software (SAS, Cary, N.C.). Alternatively, intracellular cAMP levels are measured using standard kits and EC50 values determined by plotting these levels against drug concentration. Antagonists of the glucagon receptor inhibit glucagon-induced cAMP production.

db/db mouse = assay: Glucose lowering in db/db mice; type: in vivo; details: oral gavage, freely-feeding db/db mice, 100% = normalization to lean db/+, read-out: % Glu lowering in db/db mouse @ 30 mg/kg
Protocol: To assess the effects of compounds provided herein on blood glucose levels in the db/db mouse, an animal model of type 2 diabetes, compounds are dissolved in polyethylene glycol-400 and administered by oral gavage to db/db mice in the freely-feeding state at doses of 30 and/or 100 mg/kg. Blood glucose levels are assessed in blood samples obtained by tail bleed at baseline (prior to drug administration) and at regular time intervals over 24 hrs using a portable glucometer such as the OneTouch or HemoCue meters. The magnitude of blood glucose lowering elicited by the compounds provided herein is determined by comparison to those in db/db mice administered only the vehicle. The percentage glucose lowering is calculated by factoring in the blood glucose levels of vehicle-treated lean db/+ (heterozygote) mice, with 100% representing the normalization of blood glucose levels from the hyperglycemic state (vehicle-treated db/db mice) to the normoglycemic state (vehicle-treated db/+ mice).

[1] = Oral bioavailability in the rat; type: in vivo

| Compound | IC50 (human glucagon receptor) | EC50 (human hepatocytes) | inhibition in vivo at 30 mg/kg (db/db mouse) | OBAV in rat [1] |
| --- | --- | --- | --- | --- |
| Cc1cc(C(F)(F)F)ccc1-c1ccc(NC(=O)C(Cc2ccc(C(=O)NCCS(=O)(=O)O)cc2)c2ccc(C3=CCC(C)(C)CC3)cc2)cc1 (racemic) | 11 nM | 30 nM | 20% | – |
| Cc1cc(Cl)ccc1-c1ccc(NC(=O)[C@H](Cc2ccc(C(=O)NCCS(=O)(=O)O)cc2)c2ccc([C@H]3CC[C@@H](C(C)(C)C)CC3)cc2)cc1 | 9 nM | 3 nM | 53% | 54% |
| CC(C)(C)c1ccc(-c2ccc(C(Cc3ccc(C(=O)NCCS(=O)(=O)O)cc3)C(=O)Nc3ccc(C4=CCCC4)cc3)cc2)cc1 (racemic) | 17 nM | 65 nM | 30% | – |
| Cc1cc(Cl)ccc1-c1ccc(NC(=O)[C@H](Cc2ccc(C(=O)NCCS(=O)(=O)O)cc2)c2cccc(C3CCC(C)(C)CC3)c2)cc1 | 10 nM | 12 nM | 45% | 52% |
| Cc1cc(Cl)ccc1-c1ccc(NC(=O)C(Cc2ccc(C(=O)NCCS(=O)(=O)O)cc2)c2cccc(C3=CCC(C)(C)CC3)c2)cc1 (racemic) | 9 nM | 26 nM | 56% | 38% |
| Cc1cc(-c2ccc(NC(=O)[C@H](Cc3ccc(C(=O)NCCS(=O)(=O)O)cc3)c3ccc(-c4ccc(C(C)(C)C)cc4)cc3)cc2)ccc1Cl | 6 nM | 31 nM | 33% | 62% |
| Cc1cc(Cl)ccc1-c1ccc(NC(=O)C(Cc2ccc(C(=O)NCCS(=O)(=O)O)cc2)c2ccc(C3CCC(C(C)(C)C)CC3)cc2)cc1 (racemic) | 12 nM | 41 nM | 58% | – |
| Cc1cc(Cl)ccc1-c1ccc(NC(=O)C(Cc2ccc(C(=O)NCCS(=O)(=O)O)cc2)c2ccc(C3=CCC(C)(C)CC3)cc2)cc1 (racemic) | 17 nM | 49 nM | 42% | 48% |
| Cc1cc(C)c(-c2ccc(NC(=O)[C@H](Cc3ccc(C(=O)NCCS(=O)(=O)O)cc3)c3ccc(-c4ccc(C(C)(C)C)cc4)cc3)cc2)c(C)c1 | 5 nM | 4 nM | 57% | 73% |
| CC1(C)CC=C(c2cccc(C(Cc3ccc(C(=O)NCCS(=O)(=O)O)cc3)C(=O)Nc3ccc(-c4ccc(Cl)cc4Cl)cc3)c2)CC1 (racemic) | 15 nM | 30 nM | 28% | – |
| CC1(C)CC=C(c2ccc(NC(=O)[C@H](Cc3ccc(C(=O)NCCS(=O)(=O)O)cc3)c3ccc(-c4ccc(C(C)(C)C)cc4)cc3)cc2)CC1 | 8 nM | 36 nM | 29% | 69% |
| Cc1cccc2oc(-c3ccc(NC(=O)C(Cc4ccc(C(=O)NCCS(=O)(=O)O)cc4)c4ccc(C=CC(C)(C)C)cc4)cc3)nc12 (racemic) | 13 nM | 62 nM | 39% | – |
| CC(C)(C)C1CCC(c2ccc(C(Cc3ccc(C(=O)NCCS(=O)(=O)O)cc3)C(=O)Nc3ccc(-c4ccc(Cl)cc4Cl)cc3)cc2)CC1 (racemic) [drawing 106] | 16 nM | – | 25% | – |
| Cc1ccccc1-c1ccc(NC(=O)C(Cc2ccc(C(=O)NCCS(=O)(=O)O)cc2)c2ccc(-c3ccc(C(C)(C)C)cc3)cc2)cc1 (racemic) | 10 nM | 194 nM | 45% | – |
